# Measured values from patent US8507538B2, “Selective heterocyclic sphingosine 1 phosphate receptor modulators” (Receptos, Inc., priority 2009, dated 2013).
# Molecular target: S1P1/EDG1 (Homo sapiens, UniProt P21453)
# Assay: S1P1 CRE-bla CHOK1 reporter assay (inhibition of Forskolin induced cAMP)
# Format: cell-based
# Conditions: agonist activity range, Table 2; read-out: S1P1 ACTIVITY
# In short: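 Stable CRE-bla CHO-K1 clone expressing human S1P1, serum-starved (0.5% stripped serum) 18 h, then treated with compound (10-point curve) plus 2 μM forskolin for 4 h at 37 °C. β-lactamase FRET ratio (458/522 nm) read after 2 h substrate loading; EC50 for inhibition of forskolin-induced cAMP by non-linear regression.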
# Sequence of S1P1/EDG1 (P21453 whole entry): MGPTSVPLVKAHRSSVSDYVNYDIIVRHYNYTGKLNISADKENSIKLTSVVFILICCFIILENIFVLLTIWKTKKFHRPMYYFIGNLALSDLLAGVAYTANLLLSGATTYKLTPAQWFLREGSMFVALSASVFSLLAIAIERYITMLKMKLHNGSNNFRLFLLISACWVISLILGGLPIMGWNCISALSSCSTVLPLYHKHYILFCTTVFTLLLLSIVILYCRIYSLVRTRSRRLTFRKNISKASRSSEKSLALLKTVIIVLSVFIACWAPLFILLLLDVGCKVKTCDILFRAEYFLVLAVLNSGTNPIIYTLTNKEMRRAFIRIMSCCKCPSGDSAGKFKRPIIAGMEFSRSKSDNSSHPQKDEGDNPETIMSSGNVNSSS
row,Compound,EC50 [nM]
1,CC(C)Oc1ccc(-c2ncc(-c3cccc4c3CC[C@@H]4NS(=O)(=O)CCC(=O)O)s2)cc1C#N [Compound 160],< 0.05
2,CC(C)Oc1ccc(-c2ncc(-c3cccc4c3CC[C@@H]4NS(=O)(=O)CCC(=O)O)s2)cc1C#N [Compound 161],0.05 to 0.5
3,CC(C)Oc1ccc(-c2ncc(-c3cccc4c3CC[C@@H]4NS(=O)(=O)CC(=O)N3CC(O)C3)s2)cc1C#N [Compound 163],0.05 to 0.5
4,"CC(C)Oc1ccc(-c2ncc(-c3cccc4c3CC[C@@H]4NS(=O)(=O)CCO)s2)cc1C#N [Compound 165, (S)-N-(4-(2-(3-cyano-4-isopropoxyphenyl)thiazol-5-yl)-2,3-dihydro-1H-inden-1-yl)-2-hydroxyethanesulfonamide]",0.5 to 5
5,"CC(C)Oc1ccc(-c2ncc(-c3cccc4c3CC[C@@H]4NS(N)(=O)=O)s2)cc1C#N [Compound 167, (S)-N-(4-(2-(3-cyano-4-isopropoxyphenyl)thiazol-5-yl)-2,3-dihydro-1H -inden-1-yl)sulfamide]",0.05 to 0.5
6,CC(C)Oc1ccc(-c2ncc(-c3cccc4c3CC[C@@H]4NC(=O)N(C)C)s2)cc1C#N [Compound 168],0.05 to 0.5
7,CC(C)Oc1ccc(-c2ncc(-c3cccc4c3CC[C@@H]4NC(=O)N(C)C)s2)cc1C#N [Compound 169],0.5 to 5
8,CC(C)Oc1ccc(-c2ncc(-c3cccc4c3CC[C@@H]4NC(=O)N3CC(O)C3)s2)cc1C#N [Compound 170],0.5 to 5
9,CC(C)Oc1ccc(-c2ncc(-c3cccc4c3CC[C@@H]4NC(=O)N3CC(O)C3)s2)cc1C#N [Compound 171],0.05 to 0.5
10,"CC(C)Oc1ccc(-c2ncc(-c3cccc4c3CC[C@@H]4NC(=O)N3CCCC3)s2)cc1C#N [Compound 173, (S)-N-(4-(2-(3-cyano-4-isopropoxyphenyl)thiazol-5-yl)-2,3-dihydro-1H-inden-1-yl)pyrrolidine-1-carboxamide]",0.5 to 5
11,CC(C)Oc1ccc(-c2ncc(-c3cccc4c3CC[C@@H]4NC(=O)N3CC[C@@H](O)C3)s2)cc1C#N [Compound 174],0.05 to 0.5
12,CC(C)Oc1ccc(-c2ncc(-c3cccc4c3CC[C@@H]4NC(=O)N3CC[C@H](O)C3)s2)cc1C#N [Compound 175],0.5 to 5
13,CC(C)Oc1ccc(-c2ncc(-c3cccc4c3CC[C@@H]4NC(=O)N3CC[C@@H](O)C3)s2)cc1C#N [Compound 176],0.5 to 5
14,CC(C)Oc1ccc(-c2ncc(-c3cccc4c3CC[C@@H]4NC(=O)N3CC[C@H](O)C3)s2)cc1C#N [Compound 177],0.05 to 0.5
15,CC(C)Oc1ccc(-c2ncc(-c3cccc4c3CC[C@@H]4NC(=O)N3CC[C@@H](N)C3)s2)cc1C#N [Compound 178],0.05 to 0.5
16,CC(C)Oc1ccc(-c2ncc(-c3cccc4c3CC[C@@H]4NC(=O)N3CC[C@H](N)C3)s2)cc1C#N [Compound 179],0.5 to 5
17,CC(C)Oc1ccc(-c2ncc(-c3cccc4c3CC[C@@H]4NC(=O)N3CC[C@H](N)C3)s2)cc1C#N [Compound 180],> 5
18,CC(C)Oc1ccc(-c2ncc(-c3cccc4c3CC[C@@H]4NC(=O)N3CC[C@@H](N)C3)s2)cc1C#N [Compound 181],> 5
19,CC(C)Oc1ccc(-c2ncc(-c3cccc4c3CC[C@@H]4NC(=O)N3CC[C@H](N(C)C)C3)s2)cc1C#N [Compound 182],0.5 to 5
20,CC(C)Oc1ccc(-c2ncc(-c3cccc4c3CC[C@@H]4NC(=O)N3CC[C@@H](N(C)C)C3)s2)cc1C#N [Compound 183],0.5 to 5
21,CC(C)Oc1ccc(-c2ncc(-c3cccc4c3CC[C@@H]4NC(=O)N3CC[C@H](N(C)C)C3)s2)cc1C#N [Compound 184],> 5
22,CC(C)Oc1ccc(-c2ncc(-c3cccc4c3CC[C@@H]4NC(=O)N3CC[C@@H](N(C)C)C3)s2)cc1C#N [Compound 185],> 5
23,CC(C)Oc1ccc(-c2ncc(-c3cccc4c3CC[C@@H]4NC(=O)N3CCOCC3)s2)cc1C#N [Compound 187],0.5 to 5
24,CC(C)Oc1ccc(-c2ncc(-c3cccc4c3CC[C@@H]4NC(=O)N3CCNCC3)s2)cc1C#N [Compound 188],0.5 to 5
25,CC(C)Oc1ccc(-c2ncc(-c3cccc4c3CC[C@@H]4NC(=O)N3CCNCC3)s2)cc1C#N [Compound 189],> 5
